This passage reports IC50 results from patent US20230142274A1 (SIMCERE PHARMACEUTICAL CO., LTD., priority 2020, published 2023).

Bounds are passed on as bounds.

For assay [1], the system named is WI-38 cells. Nature of the assay: Inhibition of human WI-38 embryonic lung cell proliferation (Cell-Titer Glo). Format: cell-based. The note with it: Homo sapiens, 72 h, 3 days incubation, read-out: Anti-Proliferative Activity Against WI-38 cells IC50. The procedure:
Introduction of the experimental principle: After the RAD51 inhibitor to be tested was co-incubated with human embryonic lung cells for a period of time, the influence of the test compound on cell proliferation was measured by a method for counting cell proliferation based on the quantitative measurement of intracellular ATP content.
Materials and Cells: WI-38 cells were purchased from ATCC; fetal bovine serum, 1640 medium and penicillin-streptomycin were purchased from Gibco Inc. (U.S.), 96-well plates were purchased from Corning Inc. (U.S.), and Cell-Titer Glo reagent was purchased from Promega Corporation (U.S.).
Cell culture: WI-38 cells were cultured in an EMEM culture medium containing 10% fetal bovine serum and 1% penicillin-streptomycin at 37° C. in an atmosphere containing 5% CO2. Cells in logarithmic growth phase could be used for experiments.
Assay of cell proliferation and viability: Cell-Titer Glo reagent was used to measure the inhibitory activities of the compounds on the proliferation of WI-38 cell strain. The concentration of cells was adjusted, and the cells were seeded in a 96-well plate and cultured at 37° C. in an atmosphere containing 5% CO2 for 24 hours. The powder of the compound was dissolved in 100% DMSO to form a 10 mM solution. 10 μl of the solution of the compound was aspirated and transferred into a 96-well compound plate containing 20 μl of DMSO solution in each well for 3-fold dilution and was then formulated to 10 serial dilutions. Thereafter, 2 μl of the solution of the compound was aspirated from the corresponding well and added correspondingly into a 96-well intermediate compound dilution plate containing 78 μl of complete culture medium in each well. The resultant was mixed well, and the plate was centrifuged at 1000 rpm for 1 minute. Finally, 10 μl of the solution of the compound was aspirated from the corresponding well of the 96-well intermediate compound dilution plate, and transferred into the corresponding well of the cell culture plate containing 90 μl of complete culture medium. The final concentration of DMSO was 0.25%. After the addition of the compound, the cells were continued to be incubated for 3 days at 37° C. in an atmosphere containing 5% CO2. Cell-Titer Glo reagent was added to measure cell viability.
% Compound inhibition was calculated and IC50 of the compound was fitted;
% Compound inhibition=1−100%×(Signal−Bottom)/(Top−Bottom)

The subject of assay [2] is Daudi cells. Put plainly: Inhibition of human Daudi lymphoma cell proliferation (Cell-Titer Glo). Format: cell-based. The note with it: Homo sapiens, 72 h, 3 days incubation, read-out: Anti-Proliferative Activity Against Daudi cells IC50. In short, it runs like this: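 Daudi cells in RPMI 1640 with 10% FBS were seeded and grown 24 h, then exposed for 3 days (37 °C, 5% CO2) to 10-point 3-fold serial dilutions at 0.25% final DMSO. Viability was read by CellTiter-Glo ATP luminescence, and IC50 was fitted from % inhibition against top/bottom controls.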

As to `Cc1cc(Nc2ccc(-c3cnc([C@H]4CC[C@H](NC(=O)OC(C)C)CC4)s3)c(S(=O)(=O)C3COC3)c2)n(C)n1` [Example 117, isopropyl trans-(4-(5-(4-((1,3-dimethyl-1H-pyrazol-5-yl)amino)-2-(oxetan-3-ylsulfonyl)phenyl)thiazol-2-yl)cyclohexyl)carbamate], the IC50 was determined as 20 µM in assay [1] and 7 nM in assay [2].

With `Cc1cc(Nc2ccc(-c3cnc([C@H]4CC[C@H](NC(=O)OC(C)C)CC4)s3)c(S(=O)(=O)C3CCC3)c2)n[nH]1` [Example 88, isopropyl trans-(4-(5-(2-(cyclobutylsulfonyl)-4-((5-methyl-1H-pyrazol-3-yl)amino)phenyl)thiazol-2-yl)cyclohexyl)carbamate], the IC50 was > 25 µM in assay [1] and 4 nM in assay [2].

For `CC(C)OC(=O)N[C@H]1CC[C@H](c2ncc(-c3ccc(NC(=O)OCC4CC4)cc3S(=O)(=O)NC(C)(C)C)s2)CC1` [Example 16, isopropyl trans-N-[4-[5-[2-(tert-butylsulfamoyl)-4-(cyclopropylmethoxycarbonylamino)phenyl]thiazol-2-yl]cyclohexyl]carbamate], the results for the IC50 in assay [1] and in assay [2] were > 25 µM and 490 nM, respectively.

In the case of `CC(C)OC(=O)Nc1ccc(-c2cnc([C@H]3CC[C@H](NC(=O)OC(C)C)CC3)s2)c(S(=O)(=O)C(C)(C)C)c1` [Example 34, isopropyl trans-N-[3-tert-butylsulfonyl-4-[2-[4-(isopropoxycarbonylamino)cyclohexyl]thiazol-5-yl]phenyl]carbamate], the IC50 in assay [1] was > 25 µM; in assay [2], 700 nM.

As for `CC(C)OC(=O)N[C@H]1CC[C@H](c2ncc(-c3ccc(NC(=O)NC4(c5ccccc5)CC4)cc3S(=O)(=O)NC(C)(C)C)s2)CC1` [Example 17, isopropyl trans-N-[4-[5-[2-(tert-butylsulfamoyl)-4-[(1-phenylcyclopropyl)carbamoylamino]phenyl]thiazol-2-yl]cyclohexyl]carbamate], the IC50 is > 25 µM in assay [1] and 110 nM in assay [2].

As for `CC(C)OC(=O)Nc1ccc(-c2cnc(C34CC(NC(=O)OC(C)C)(C3)C4)s2)c(S(=O)(=O)NC(C)(C)C)c1` [Example 7, isopropyl (3-(5-(4-(isopropoxycarbonyl)amino-2-(N-(tert-butyl)sulfamoyl)phenyl)thiazol-2-yl)bicyclo[1.1.1]pent-1-yl)carbamate], the figures for the IC50 in assay [1] and in assay [2] were > 25 µM and 2590 nM, respectively.

Consider `CC(C)OC(=O)N[C@H]1CC[C@H](c2ncc(-c3ccc(Nc4cnn(CCF)c4)cc3S(=N)(=O)C3CCC3)s2)CC1` (stereo partly drawn) [Example 102], for which the IC50 in assay [1] is > 25 µM; in assay [2] it was 17 nM.

As to `CC(C)OC(=O)N[C@H]1CC[C@H](c2ncc(-c3ccc(Nc4cc(C5CC5)[nH]n4)cc3S(=O)(=O)C3CC3)s2)CC1` [Example 62, isopropyl trans-N-[4-[5-[4-[(5-cyclopropyl-1H-pyrazol-3-yl)amino]-2-cyclopropylsulfonyl-phenyl]thiazol-2-yl]cyclohexyl]carbamate], the figures for the IC50 in assay [1] and in assay [2] were > 25 µM and 10 nM, respectively.

For `Cc1cc(Nc2ccc(-c3cnc([C@H]4CC[C@H](NC(=O)OC(C)C)CC4)s3)c(S(=O)(=O)C(C)C)c2)nn1C` [Example 36, isopropyl trans-(4-(5-(4-((1,5-dimethyl-1H-pyrazol-3-yl)amino)-2-(isopropylsulfonyl)phenyl)thiazol-2-yl)cyclohexyl)carbamate], the IC50 is 24.6 µM in assay [1] and 77 nM in assay [2].

Regarding `CC(C)OC(=O)N[C@H]1CC[C@H](c2ncc(-c3ccc(Nc4ccno4)cc3S(=O)(=O)NC(C)(C)C)s2)CC1` [Example 29, isopropyl trans-(4-(5-(2-(N-(tert-butyl)sulfamoyl)-4-(isoxazol-5-ylamino)phenyl)thiazol-2-yl)cyclohexyl)carbamate], the IC50 in assay [1] is 18.4 µM; in assay [2], 340 nM.

As to `C=CC(=O)N=S(=O)(c1cc(NC(=O)OC(C)C)ccc1-c1cnc([C@H]2CC[C@H](NC(=O)OC(C)C)CC2)s1)C(C)C` (relative stereo) [Example 4, isopropyl trans-N-[4-[2-[4-(isopropoxycarbonylamino)cyclohexyl]thiazol-5-yl]-3-(isopropyl-N-prop-2-enoyl-sulfonimidoyl)phenyl]carbamate], the IC50 turned out to be 7.22 µM in assay [1] and 1010 nM in assay [2].

As to `Cc1cc(Nc2ccc(-c3cnc([C@H]4CC[C@H](NC(=O)OC(C)C)CC4)s3)c(S(=O)(=O)C3CN(C)C3)c2)n[nH]1` [Example 114, isopropyl trans-(4-(5-(4-((5-methyl-1H-pyrazol-3-yl)amino)-2-((1-methylazetidin-3-yl)sulfonyl)phenyl)thiazol-2-yl)cyclohexyl)carbamate], the IC50 in assay [1] was > 25 µM; in assay [2], 14 nM.

As for `Cc1cc(Nc2ccc(-c3cnc([C@H]4CC[C@H](NC(=O)OC(C)C)CC4)s3)c(S(=O)(=O)C(C)C)c2)n[nH]1` [Example 40, isopropyl trans-(4-(5-(2-(isopropylsulfonyl)-4-((5-methyl-1H-pyrazol-3-yl)amino)phenyl)thiazol-2-yl)cyclohexyl)carbamate], the IC50 amounted to 22.9 µM in assay [1] and 51 nM in assay [2].

Take `CC(C)OC(=O)N[C@H]1CC[C@H](c2ncc(-c3ccc(Nc4cc[nH]n4)cc3S(=O)(=O)NC(C)(C)C)s2)CC1` [Example 22, isopropyl trans-(4-(5-(4-((1H-pyrazol-3-yl)amino)-2-(N-(tert-butyl)sulfamoyl)phenyl)thiazol-2-yl)cyclohexyl)carbamate]: the IC50 in assay [1] was 23.3 µM; in assay [2], 35 nM.

Regarding `CC(C)OC(=O)N[C@H]1CC[C@H](c2ncc(-c3ccc(NC(=O)N4CCc5ccccc5C4)cc3S(=O)(=O)NC(C)(C)C)s2)CC1` [Example 12, isopropyl trans-N-[4-[5-[2-(tert-butylsulfamoyl)-4-(3,4-dihydro-1H-isoquinoline-2-carbonylamino)phenyl]thiazol-2-yl]cyclohexyl]carbamate], the IC50 in assay [1] was > 25 µM; in assay [2], 20 nM.

As to `Cc1cc(Nc2ccc(-c3cnc([C@H]4CC[C@H](NC(=O)OC(C)C)CC4)s3)c(S(=O)(=O)C3CCOC3)c2)n[nH]1` (stereo partly drawn) [Example 115, isopropyl trans-(4-(5-(4-((5-methyl-1H-pyrazol-3-yl)amino)-2-((tetrahydrofuran-3-yl)sulfonyl)phenyl)thiazol-2-yl)cyclohexyl)carbamate], the IC50 is > 25 µM in assay [1] and 16 nM in assay [2].

Take `CC(C)OC(=O)N[C@H]1CC[C@H](c2ncc(-c3ccc(Nc4cn(C)nn4)cc3P3(=O)CCCC3)s2)CC1` [Example 53, isopropyl trans-N-[4-[5-[4-[(1-methyltriazol-4-yl)amino]-2-(1-oxidophospholan-1-yl)phenyl]thiazol-2-yl]cyclohexyl]carbamate]: the IC50 in assay [1] is > 25 µM; in assay [2], 100 nM.

`CC(C)OC(=O)N[C@H]1CC[C@H](c2ncc(-c3ccc(NC(=O)NCc4ccccc4)cc3P(C)(C)=O)s2)CC1` [Example 26, isopropyl trans-(4-(5-(4-(3-benzylureido)-2-(dimethylphosphoryl)phenyl)thiazol-2-yl)cyclohexyl)carbamate]: the IC50 in assay [1] is > 25 µM; in assay [2] it was 130 nM.

As for `CC(C)OC(=O)Nc1ccc(-c2cnc(C3CC4CCC(C3)C4NC(=O)OC(C)C)s2)c(S(=O)(=O)NC(C)(C)C)c1` (stereo not drawn) [Example 21, isopropyl N-[3-(tert-butylsulfamoyl)-4-[2-[8-(isopropoxycarbonylamino)-3-bicyclo[3.2.1]octyl]thiazol-5-yl]phenyl]carbamate], the IC50 is > 25 µM in assay [1] and 440 nM in assay [2].

With `CC(C)OC(=O)N[C@H]1CC[C@H](c2ncc(-c3ccc(NC(=O)C4CC4c4ccccc4)cc3S(=O)(=O)NC(C)(C)C)s2)CC1` (stereo partly drawn) [Example 18, isopropyl trans-N-[4-[5-[2-(tert-butylsulfamoyl)-4-[(2-phenylcyclopropanecarbonyl)amino]phenyl]thiazol-2-yl]cyclohexyl]carbamate], the values for the IC50 in assay [1] and in assay [2] were > 25 µM and 90 nM, respectively.

With `CC(C)OC(=O)Nc1ccc(-c2cnc([C@H]3CC[C@H](NC(=O)OC(C)C)CC3)s2)c(NS(=O)(=O)C(C)(C)C)c1` [Example 19, isopropyl trans-N-[3-(tert-butylsulfonylamino)-4-[2-[4-(isopropoxycarbonylamino)cyclohexyl]thiazol-5-yl]phenyl]carbamate], the IC50 is > 25 µM in assay [1] and 960 nM in assay [2].
